melting point | Structure (SMILES)
258 °C | Cc1ccc(S(=O)(=O)N2CCN(S(=O)(=O)c3ccc(C)cc3)[C@@H](c3ccccc3)C2)cc1
146 to 148 °C | CC1Cc2c(occ(C=O)c2=O)-c2ccccc21 (centres undefined)
84 to 86 °C | CC(=O)CN1CCNC1=Nc1c(Cl)cccc1Cl
150 to 152 °C | OCCN1CCN(C2=Nc3cc(Br)ccc3Oc3cscc32)CC1
160 to 161 °C | CCCCCS(=O)(=O)c1cccc(-c2nc(=O)c3ccccc3s2)n1
210 °C | COc1ccc2nc(SCc3nccc(N4CCOCC4)c3Cl)[nH]c2n1
80 to 100 °C | CS(=O)(=O)c1ccc(-c2cnn(-c3ccc(F)cc3)c(=O)c2N2CCCCC2)cc1
239 to 240 °C | CNCc1cccc(C2CCN(c3cc4c(cc3F)c(=O)c(C(=O)O)cn4C3CC3)C2)c1 (centres undefined)
163 to 164 °C | O=C1C2CC(c3ccc([N+](=O)[O-])cc3)(C2)C(=O)N1C1CCCCC1
45 to 50 °C | CC(=O)c1ccc(Oc2cccnc2)cc1
214 to 216 °C | COc1ccc(-c2cc(C#N)c3cc(O)ccc3c2)cc1F
156 to 157 °C | COc1cccc2c1CC(NC(C)=O)CC2 (centres undefined)
193 to 194 °C | COc1ccc(-c2cc3ccc(OC)cc3s2)cc1
74 to 75 °C | COC(=O)Cc1ccccc1OCc1ccccc1
185 to 189 °C | C[C@@H](N(CCO)C(=O)c1ccc(C(F)(F)F)cc1)[C@](O)(Cn1cncn1)c1ccc(Cl)cc1Cl (relative stereo)
195 to 196 °C | Cc1c(C)c2c(c(C)c1O)CC[C@](C)(C(=O)N[C@H]1CCOC1=O)O2
139 to 141 °C | O=C(NC1CCN(CC(O)COc2cccc3ccccc23)CC1)c1ccccc1 (centres undefined)
43 to 44 °C | C=C(C(=C)c1cc(C)sc1C)c1cc(C)sc1C
354 to 364 °C | O=c1[nH]c2cc(Cl)cc(Cl)c2c(=O)n1Cc1ccncc1
175 to 183 °C | Cc1cc(CCCOc2c(C)cc(-c3noc(=N)[nH]3)cc2C)on1
190 to 193 °C | CNCC1CCN(c2ccc(Cl)cc2NC(=O)c2csc3cncnc23)CC1
189 to 190 °C | Cc1cc(C[C@@H](NC(=O)c2ccc(F)c3ccccc23)[C@@H](O)c2ccc(F)cc2)cc(OC(F)(F)C(F)F)c1 (racemic)
174 to 175 °C | Cc1cnc(NN)nc1N

melting point | Structure (SMILES)
110 to 111 °C | CCCCCCCCCCN1CCC2(CC1)CSC1=C(O2)c2ccccc2C(=O)C1=O
154 to 156 °C | CC12Cc3cnn(-c4ccc(F)cc4)c3C=C1CCC1C2=CCCC1c1ccccn1 (centres undefined)
134 to 135 °C | Clc1ccnc(Nc2ccccc2)n1
101 to 104 °C | CCCCNC(=S)C(C)Oc1ccc2oc3cc(Cl)ccc3c2c1 (centres undefined)
168 to 170 °C | Cc1c(C(=O)CS(=O)Cc2ccc(Cl)cc2)sc2ccc(Cl)cc12 (centres undefined)
66 °C | O=[N+]([O-])c1cc([C@@H]2CO2)ccc1OCc1ccccc1
104 to 105 °C | O=c1[nH]nc(COc2ccccc2)s1
188 to 189 °C | CC(=O)COc1nc(N2CCCCC2)c2nc(OCC(C)=O)nc(N3CCCCC3)c2n1
160 to 163 °C | Ic1ccc2c3c(cccc13)C(=NCc1ccccc1)N2
145 to 146 °C | Cc1oc(-c2ccccc2)nc1CCC(=O)c1ccc(CC2SC(=O)NC2=O)cc1 (centres undefined)
162 to 165 °C | N#Cc1cc(N)ccc1CN1CCC(N2CCOCC2)CC1
141 to 142 °C | CCOC(=O)c1cc(C(=O)CBr)c(=O)[nH]c1C(=O)OCC
187 to 188 °C | Cc1c(C(=O)Nc2ccc(OCC(C)(C)C)c(C#N)c2)cnn1C
72 °C | N#CC(Cl)=C(Cl)S(=O)(=O)c1ccccc1
120 to 122 °C | CC1(C)CC(SCc2c(C(F)(F)F)n[nH]c2Cl)=NO1
185 to 186 °C | Cc1c2c(c(C(C)(O)c3ccc(C(C)C)cc3)c(C)c1NC(=O)OC(C)(C)C)OCC2 (centres undefined)
208 to 210 °C | O=C(Cc1ccc(SC(F)(F)F)cc1)NCc1ccc2c(c1)CN(C1CCC(=O)NC1=O)C2=O (centres undefined)
184 to 185 °C | c1nc(NCCN2CCOCC2)c2sc3nc(N4CCOCC4)c4c(c3c2n1)CCOC4
205 to 208 °C | O=C(NC(=O)c1c(F)cccc1F)Nc1cc(Cl)cc(C(F)(F)F)c1Cl
154 °C | Cn1cnc(COc2nn3c(-c4ccccc4F)nnc3cc2C2(C)CCOCC2)n1
98 to 99 °C | CCC(=O)N[C@@H]1Cc2ccccc2N(OC)C1=O
119 to 120 °C | COc1ccc(C=CC(=O)c2c(OC)cc(OC)cc2OC(=O)c2ccc(OC)cc2OC)cc1
180 °C | COc1ccc(C2OC(=O)N3CC(=O)CCC23)cc1OC (centres undefined)

melting point | Structure (SMILES)
172 to 173 °C | O=c1[nH]ccc2c1C(c1cccc(Cl)c1)N=C(c1ccccc1)N2 (centres undefined)
81 to 85 °C | CC1(c2ccccc2)OC(=S)N(Nc2ccccc2)C1=O (centres undefined)
229 to 231 °C | COc1ccc(NC(=O)Nc2c(C)cc(Oc3ccc4nc(COc5ccc(CC6SC(=O)NC6=O)cc5)n(C)c4c3)cc2C)cc1 (centres undefined)
200 °C | Cc1nc2scc(C)n2c(=O)c1CCN1CCC(C(=O)c2ccc(F)cc2)CC1
120 to 122 °C | O=S(=O)(CCN1CCOCC1)OCCOc1ccn(-c2ccc(Cl)c(Cl)c2)n1
104 °C | Cc1cc(I)ccc1Nc1c(C2=NC(C)(C)CO2)ccc(F)c1F
144 to 146 °C | Cn1cc(-c2ccc(Br)cc2)c(=O)c(-c2cccc(C(F)(F)F)c2)c1
125 °C | NS(=O)(=O)c1cc(C(=O)CBr)ccc1F
162 °C | CS(=O)(=O)c1ccc2c(c1)[C@@H](Oc1ccc(C#N)cc1Cl)[C@H](N1CCC[C@@H](N)C1)C2
267 to 268 °C | CC(C)NC(=O)Nc1nc(Cc2c(Cl)cccc2Cl)nc(Nc2ccc(C#N)cc2)n1
194 to 195 °C | CC(=O)ON=C1C(=O)Nc2cc(Cl)cc(Cl)c2C1=O
118 to 120 °C | O=S1NC(CC2=Cc3ccccc3CC2)=NO1 (centres undefined)
110 to 111 °C | Cn1nc(-c2ncc(Cl)cc2F)cc1Br
201 to 202 °C | O=C(NC(=O)c1c(F)cccc1F)Nc1cc(Cl)c(OCC(F)(F)F)cc1F
181 to 183 °C | CCN1C(=O)C(C)(C)CCc2c1ccc(Nc1ncc(Cl)c(Nc3ccc(N4CCOCC4)cc3OC)n1)c2OC
202 to 203 °C | NC(=O)c1ccc(O[C@@H]2CNC[C@H]2O)cc1 (relative stereo)
134 to 136 °C | COC(=O)C(C)(C)OCC#Cc1cc(C(F)(F)F)ccc1NS(=O)(=O)c1ccc2c(c1)CCN2C(C)=O
284 to 286 °C | O=c1[nH]c2cc(Cl)ccc2c(=O)n1S(=O)(=O)c1cccc2cccnc12
156 to 157 °C | Fc1ccc(F)c(CN2CCNc3ncc(I)cc32)c1Cl
101 °C | Nc1ccc(Oc2ccc(C3CCCCC3)cc2)c(N)c1
142 to 145 °C | Nc1cc(Br)cc2cccnc12
119 to 120 °C | CC(C)c1nn(-c2ccc(C(F)(F)F)cn2)cc1CO
155 to 157 °C | CCOC(=O)c1ccc2nc(NC(C)=O)n(S(=O)(=O)N(C)C)c2c1

melting point | Structure (SMILES)
51 °C | COC(=O)CSc1cccc(CNC(=O)C2Cc3ccccc3N2S(=O)(=O)c2ccc(-c3cccc(C(F)(F)F)c3)cc2)c1 (centres undefined)
81.5 to 83.5 °C | COc1ccc2c(O)c(C(C)C)cc(Br)c2c1
301 °C | Cc1cc(-c2ccc(Cl)cc2)cn2c(-c3nc(-c4cccc(S(N)(=O)=O)c4)no3)cnc12
115 to 116 °C | O=C(O)Cc1ccccc1OCc1ccc(OCc2csc(-c3ccccc3)n2)cc1
207 to 208 °C | On1c(C(F)(F)F)nc2nc(Cl)c(Cl)cc21
158 to 160 °C | O=C1c2ccccc2C(=O)N1Cc1ccc(/C=C/C(c2cc(Cl)c(Cl)c(Cl)c2)C(F)(F)F)c2ccccc12 (centres undefined)
100 to 102 °C | O=C(O)C(=O)C=Cc1ccccc1F
100 to 102 °C | C=C(c1ccc(N(CC)CC)cc1)c1ccc(N(CC)CC)cc1
128 to 129 °C | COc1ccc(CC(=O)NC(NC(=NC#N)Nc2cccc3ncccc23)C(C)(C)C)cc1OC (centres undefined)
120 to 121 °C | COC(=O)/C(=C/CC[C@H](NC(=O)OCc1ccccc1)C(=O)N[C@H](C)C(=O)OC)NC(=O)OC(C)(C)C
76 to 78 °C | CC1(Cc2ccccc2)CCCNC1=O (centres undefined)
148 to 150 °C | CC(=O)NC[C@H]1CN(c2ccc(N3CCC(c4nnn[nH]4)CC3)c(F)c2)C(=O)O1
140 to 160 °C | C[C@H](NC(CCC(=O)O)C(=O)O)C(=O)N1CCC[C@H]1C(=O)O (some centres undefined)
107 to 108 °C | COC(=O)Cc1cn(-c2ccccc2)nc1OCc1ccc(OCc2nc(-c3ccccc3)oc2C)c(OC)c1
119 to 125 °C | CC(C)CNC(=O)C(O)C(CC1CCCCC1)NC(=O)C(Cc1c[nH]cn1)NC(=O)C(CC(=O)N1CCOCC1)Cc1cccc2ccccc12 (mixture of isomers)
136 °C | CSc1ccc(-c2nn(CC3CC3)c(=S)cc2-c2ccc(F)cc2)cc1
130 to 131 °C | CCOc1cc(CO)ccc1OCc1nc(-c2ccccc2)oc1C
113 °C | CC(C)Cn1nc(-c2ccc(F)c(F)c2)cc(COS(C)(=O)=O)c1=O
46 to 48 °C | CCOC(=O)[C@H]1[C@@H]2CC(=O)[C@@](N=[N+]=[N-])(C(=O)OCc3ccccc3)[C@@H]21
226 to 228 °C | COc1cccc2c1OCC(/C=C/C=C/C=C/C(=O)O)=C2
87 to 90 °C | CCOC(=O)c1nc(-c2cccc(Br)c2)ns1
41 °C | COc1ccc(Br)cc1C1=NC(C)(C)CO1

Structure (SMILES) | melting point
NC(Cc1ccccc1)C(=O)NC1N=C(c2ccccc2)c2ccccc2NC1=O (centres undefined) | 208 to 210 °C
Clc1cc2nc(Cl)c(N3CCNCC3)nc2cc1Cl | > 300 °C
CN1Cc2c(C(N)=NO)ncn2-c2ccc(F)c(Cl)c2C1=O | 228 to 231 °C
C1CCC2NC3NC4CCCCC4NC3NC2C1 (centres undefined) | 148 to 155 °C
O=C1C=C(NC(=O)C(=O)c2cn(Cc3cc(C(F)(F)F)cc(C(F)(F)F)c3)c3ccccc23)CO1 | 276 to 278 °C
CC(C)(C)OC(=O)C(=[N+]=[N-])C(=O)CCl | 40 to 41 °C
Cc1sc(C)c2c1CCC=C2c1c[nH]cn1 | 179 to 180 °C
Brc1ccc2[nH]c(-c3ccccc3)c(CCN3CCCCC3)c2c1 | 121 to 122 °C

Reference: a melting point compilation (Tetko et al.; mined from patent text by program, amines drawn as free bases though some values may be those of a salt)
